Results reported in patent US20190231771A1, “METHODS FOR TREATMENT AND PREVENTION OF OPIOID INDUCED CONSTIPATION USING ORAL COMPOSITIONS OF METHYLNALTREXONE” (Salix Pharmaceuticals, Ltd., priority 2011, published 2019).
“And” between values parts separate entries of the source, which are not always exact repeats. Identical values can stand only once. “Also recorded” adds a separate entry of the source. Like-named read-outs stand apart in the source and are kept apart here.

Assay: Food effect study: single oral 450 mg MNTX fasted vs high-fat breakfast, 2-period crossover
Type: in vivo, human
Settings: for Cmax / half-life / AUC(0-inf) / AUC(0-t) / Tmax: both sexes, human, plasma, oral, 450 mg; for half-life: harmonic mean; for Tmax: median
Protocol: Presented herein is a single-dose, 2-period crossover study to evaluate the effect of a standard high-fat breakfast on the pharmacokinetics of a single oral dose of 450 mg (3×150 mg tablets) MNTX. The study had 2 arms and 2 dosing periods.
Thirty-two subjects were enrolled into this study. Subjects were randomized at a 1:1 ratio to Arm 1 (fasted then fed) or Arm 2 (fed then fasted). Randomization was stratified by sex. Each subject received a single dose of MNTX 450 mg (administered as 3×150 mg tablets) with a high fat meal (MNTX fed) and after fasting (MNTX fasted). The fasted/fed study periods were separated by 7 days. The sequence of fasted/fed or fed/fasted dosing on Days 1 and 8 was determined by randomization on Day 1.
For the fasted treatment, a single 450 mg (3×150 mg) oral dose of MNTX tablets was administered to subjects following a supervised overnight fast of at least 10 hours. No food was allowed for at least 4 hours post dose.
For the fed treatment, a standard high-fat breakfast was given to the subjects following an overnight fast of at least 10 hours. A single 450 mg (3×150 mg) oral dose of MNTX tablets was administered to subjects 30 minutes after the subject began the meal. No food was allowed for at least 4 hours after drug administration.
Subjects were administered a single oral dose of MNTX tablets (450 mg) on Day 1 and Day 8 after a high fat meal or fasting as follows: (a) MNTX 450 mg (orally as 3×150 mg tablets) administered after a high-fat (high caloric) breakfast, or (b) MNTX 450 mg (orally as 3×150 mg tablets) administered after fasting.
Subjects received a single dose of MNTX 450 mg administered orally as 3×150 mg tablets immediately after a high fat/high calorie meal (MNTX fed) and after fasting (MNTX fasted). A 7-day washout period separated the fasted/fed crossover periods. The sequence of fasted/fed or fed/fasting dosing on Days 1 and 8 was determined by randomization on Day 1. Subjects fasted overnight for a minimum of 10 hours prior to administration of a high fat meal with the single dose of study drug (MNTX fed) or 10 hours prior to administration of the single dose of study drug (MNTX fasted).
Each dose on Day 1 and 8 was administered with 240 mL of room temperature drinking water, and the subjects were instructed to drink all of the water. No food was permitted for 4 hours after drug administration and water was allowed as desired except for 1 hour before and after drug administration. Approximately 4 hours after dosing, a normal meal schedule could be resumed.
A high fat/high caloric meal includes fat content of approximately 50% of total calories in the meal (approximately 800 to 1000 calories total). Subjects receiving the MNTX fed treatment regimen were required to fast for at least 10 hours before breakfast and then to eat the protocol-specified breakfast starting 30 minutes before dosing. The high-fat, high caloric breakfast consisted of the following: • Two slices of toast with ½ pat of butter on each slice. • Two eggs fried in butter. • Two strips of bacon. • Four ounces (113 g) hash brown potatoes. • Eight ounces (240 mL) of whole milk.
Plasma concentrations of MNTX were determined using a validated analytical procedure involving high performance liquid chromatography with tandem quadrupole mass spectrometric detection. Blood samples for determination of MNTX concentrations in plasma were obtained predose (approximately 1 hour prior to dose administration) on Day 1, and at 0.25, 0.5, 1, 2, 4, 6, 8, 10, 12, 16, 24, 36, 48, 72, 96, 120, 144 and 168 hours following each dose administration on Days 1 and 8. Pharmacokinetic parameters that were measured and calculated include the following: […]

[1] = 450 mg Single-Dose Fasted, mean

Question: With C[N@+]1(CC2CC2)CC[C@]23c4c5ccc(O)c4O[C@H]2C(=O)CC[C@@]3(O)[C@H]1C5.[Br-] [MNTX, (R)—N-(cyclopropylmethyl) noroxymorphone methobromide] as the compound, how does the CL/F [1] read?
Answer: 1608644 mL/h

Question: What about the λz [1] of the same compound?
Answer: 0.04 h⁻¹ and 0.0403 h⁻¹

Question: What about the CL/F (450 mg Single-Dose Fed, mean) of the same compound?
Answer: 2961340 mL/h

Question: And the λz (450 mg Single-Dose Fed, mean)?
Answer: 0.04 h⁻¹ and 0.0413 h⁻¹

Question: What about the “AUC0-∞ Geometric Mean Ratio, fasted divided by fed” value (450 mg single dose) of the same compound?
Answer: 198.17%

Question: What about the “AUClast Geometric Mean Ratio, fasted divided by fed” value (450 mg single dose) of the same compound?
Answer: 199.28%

Question: What about the “AUClast and AUC0-∞ higher in fasted as compared with fed subjects” value (450 mg single dose) of the same compound?
Answer: approximately 2 fold

Question: What about the “Cmax Geometric Mean Ratio, fasted divided by fed” value (450 mg single dose) of the same compound?
Answer: 273.6% and 273.62%

Question: What about the “arithmetic mean Cmax in fed subjects as share of that in fasted subjects” value (450 mg single dose) of the same compound?
Answer: ~28%

Question: What about the “decrease of systemic exposure by food (as determined by AUC and Cmax)” value (450 mg single dose) of the same compound?
Answer: approximately half to three quarters

Question: And the “systemic exposure (AUClast and AUC0-∞) lower in fed than in fasted subjects” value (450 mg single dose)?
Answer: approximately 50%

Question: And the “bioequivalence under fed and fasted conditions (80% to 125% range)” value (450 mg single dose, Cmax, AUClast, AUC0-∞)?
Answer: nonbioequivalence; also recorded: non-bioequivalent; also recorded: not bioequivalent

Question: And the “deaths, SAEs, TEAEs resulting in study discontinuation” value (450 mg single doses)?
Answer: no deaths, SAEs, or TEAEs resulting in study discontinuation

Question: What about the “effect on cardiac safety parameters or vital signs” value (450 mg single doses) of the same compound?
Answer: No significant effect

Question: And the “intensity of TEAEs” value (450 mg single doses)?
Answer: mild

Question: And the “relation of TEAEs to MNTX (investigator)” value (450 mg single doses)?
Answer: No TEAEs were considered by the investigator to be related to MNTX

Question: And the “subjects with headache (most frequent TEAE)” value (450 mg single doses, 32 subjects)?
Answer: 6%

Question: What about the “subjects experiencing at least 1 TEAE” value (450 mg single doses, 32 subjects, whole study) of the same compound?
Answer: 16%

Question: What about the Cmax (450 mg Single-Dose Fasted, arithmetic mean, read-out: Cmax) of the same compound?
Answer: 45.5 ng/mL

Question: And the half-life (450 mg Single-Dose Fasted)?
Answer: ~17 h

Question: What about the AUC(0-inf) (450 mg Single-Dose Fasted, mean, read-out: AUC0-∞) of the same compound?
Answer: 364 ng·h/mL

Question: What about the AUC(0-t) (450 mg Single-Dose Fasted, mean, read-out: AUClast) of the same compound?
Answer: 361 ng·h/mL

Question: What about the Tmax (450 mg Single-Dose Fasted) of the same compound?
Answer: 2 h

Question: What about the Cmax (450 mg Single-Dose Fed, arithmetic mean, read-out: Cmax) of the same compound?
Answer: 12.9 ng/mL

Question: What about the half-life (450 mg Single-Dose Fed) of the same compound?
Answer: ~17 h

Question: And the AUC(0-inf) (450 mg Single-Dose Fed, mean, read-out: AUC0-∞)?
Answer: 169 ng·h/mL

Question: And the AUC(0-t) (450 mg Single-Dose Fed, mean, read-out: AUClast)?
Answer: 166 ng·h/mL

Question: What about the Tmax (450 mg Single-Dose Fed) of the same compound?
Answer: 4 h

Question: What about the AUC(0-inf) (450 mg single dose, Fasted, read-out: AUC0-∞, Geometric Least Squares Mean) of the same compound?
Answer: 317 ng·h/mL

Question: What about the AUC(0-t) (450 mg single dose, Fasted, read-out: AUClast, Geometric Least Squares Mean) of the same compound?
Answer: 314 ng·h/mL

Question: What about the Cmax (450 mg single dose, Fasted, read-out: Cmax, Geometric Least Squares Mean) of the same compound?
Answer: 33.4 ng/mL

Question: What about the AUC(0-inf) (450 mg single dose, Fed, read-out: AUC0-∞, Geometric Least Squares Mean) of the same compound?
Answer: 160 ng·h/mL

Question: What about the AUC(0-t) (450 mg single dose, Fed, read-out: AUClast, Geometric Least Squares Mean) of the same compound?
Answer: 158 ng·h/mL

Question: What about the Cmax (450 mg single dose, Fed, read-out: Cmax, Geometric Least Squares Mean) of the same compound?
Answer: 12.2 ng/mL

Question: And the “subjects with TEAEs” value (fasted dosing period)?
Answer: Four

Question: And the “subjects with TEAEs” value (fed dosing period)?
Answer: 3 subjects

Question: What about the tolerability (single dose of MNTX 450 mg) of the same compound?
Answer: well tolerated
